In patent US7786141B2 (Vertex Pharmaceuticals Incorporated, priority 2004, dated 2010):
Read-outs that look alike come from different tables or passages of the source.

Legend:
M4 muscarinic receptor = target: T1, M4 muscarinic receptor (Homo sapiens, UniProt P08173); assay: Functional mobilization of intracellular calcium (FLIPR) in M4-CHO cells; type: cell-based
T1 construct: expressed in transfected cells; host or cells: CHO (M4-CHO)
T1 sequence (P08173 1-479): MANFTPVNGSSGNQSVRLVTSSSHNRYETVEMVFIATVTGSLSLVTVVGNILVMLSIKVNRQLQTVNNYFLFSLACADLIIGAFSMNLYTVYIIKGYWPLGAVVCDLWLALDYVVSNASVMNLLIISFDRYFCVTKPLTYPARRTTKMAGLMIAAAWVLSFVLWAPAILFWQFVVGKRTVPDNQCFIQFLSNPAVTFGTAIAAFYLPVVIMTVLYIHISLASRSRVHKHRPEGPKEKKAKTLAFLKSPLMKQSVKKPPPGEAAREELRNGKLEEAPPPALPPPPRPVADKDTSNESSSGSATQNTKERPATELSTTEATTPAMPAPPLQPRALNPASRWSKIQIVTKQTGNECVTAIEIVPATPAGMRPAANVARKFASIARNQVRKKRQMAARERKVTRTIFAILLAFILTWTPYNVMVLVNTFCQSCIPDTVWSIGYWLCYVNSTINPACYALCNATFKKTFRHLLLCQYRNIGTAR
Method: (§1) Functional Mobilization of Intracellular Calcium to Determine Muscarinic Receptor Activity:
(§2) CHO cells expressing muscarinic receptors (M1 to M5) are grown as monolayers in tissue culture flasks at 37° C. in a humidified atmosphere containing 5% CO2 and passaged every 3-5 days. The growth media is Dulbecco's modified eagles medium (DMEM, Gibco Cat# 12430-054), containing 25 mM Hepes and supplemented with Fetal Bovine Serum (Hyclone, cat# SH30071.03), 0.1 mM of MEM non-essential amino acids (GIBCO, Cat# 11140-050), 1 mM MEM Sodium Pyruvate (GIBCO Cat# 11360-070) and 100 units/ml of Penicillin G and 100 μg/ml of Streptomycin (GIBCO Cat# 15140-122). The recombinant muscarinic receptor cell lines are grown under antibiotic pressure with media containing 25 μg/ml zeocin and 500 μg/ml G418 (M1-CHO), 4 μg/ml puromycin, 50 μg/ml zeocin and 2.5 μg/ml blasticidin (M2 and M4-CHO) or 50 μg/ml zeocin and 4 μg/ml puromycin (M3 and M5-CHO).
(§3) Cells are harvested at 80-90% confluence using Versene (GIBCO Cat# 15040-066), collected by centrifugation and seeded 18-24 hrs prior to running the calcium assay at a density of 5,000 cells/well in back-walled, clear-bottomed 384-well plates (BD Biocoat, poly-D-lysine, Cat#356663). The day of the experiment, the cells are washed with a plate washer (Bioteck Instruments, ELX 405) using bath 1 buffer (140-mM NaCl, 4.5-mM KCl, 2-mM CaCl2, 1-mM MgCl2, 10-mM Hepes-Na, 10-mM Glucose, pH 7.4, with NaOH) containing 1 mM Probenecid. Next, the calcium dye Fluo-3 (25 μl/well of Fluo-3 AM at 4 μM, Molecular Probes F-1241, in Bath 1 buffer containing 1 mM Probenecid) is added to the 25 μl of Bath 1 remaining in each well after the plate wash and the dye is loaded at 37° C. in the tissue culture incubator for 60-90 min. The fluorescent dye is removed using the plate washer with Bath 1 containing 1 mM Probenecid, leaving 25 μl/well of this solution after the wash. Alternatively, cells can be loaded with the calcium indicator from Molecular Devices (Calcium 3 Assay Reagents, Cat # R7181) adding 5 μl of a 5× solution dye in Bath 1 containing 1 mM Probenecid (10 ml per dye flask cat# R7182 to generate a solution 20×) to 20 μl of the same buffer. After loading for 60 min, the experiment can be run without having to remove the dye.
(§4) Compounds are prepared at a 2× fold concentration in a 96-well plate (round bottom, Costar Corning cat# 3656), by reconstituting the pre-spotted compounds in bath 1 containing 1 mM probenecid. The final concentration DMSO is 0.5%, and the amount of DMSO is normalized across the assay plate. To determine an agonist action of the compounds on muscarinic receptors, the reconstituted compounds are added (25 μl compound/well) to the cell assay plate (containing 25 μl/well) using the multi-channel robotic system of the FLIPR 3 Instrument (Molecular Devices, Sunnyvale, Calif.). To determine a functional inhibitory action of the compounds on muscarinic receptors, the reconstituted compounds are added (25 μl compound/well) to the assay plate and pre-incubated for 15 min prior to adding 25 μl of Carbachol at 3× the EC80 for each muscarinic subtype. Alternatively, the compounds can be co-applied simultaneously with the agonist. In both assay modes, the fluorescence is recorded for 60 sec (excitation wavelength is […] and emission wavelength 540 nm) using the FLIPR 3 instrument.
(§5) The potency, efficacy and selectivity of the muscarinic compounds were evaluated by screening the compound activity across the whole family (M1 to M5 cells). Compounds were also screened for activity on other proteins such as other GPCRs and ion channels to determine selectivity on M4 receptors.

M1 muscarinic receptor = target: T2, M1 muscarinic receptor (Homo sapiens, UniProt P11229); assay: Functional mobilization of intracellular calcium (FLIPR) in M1-CHO cells; type: cell-based
T2 construct: expressed in transfected cells; host or cells: CHO (M1-CHO)
T2 sequence (P11229 1-460): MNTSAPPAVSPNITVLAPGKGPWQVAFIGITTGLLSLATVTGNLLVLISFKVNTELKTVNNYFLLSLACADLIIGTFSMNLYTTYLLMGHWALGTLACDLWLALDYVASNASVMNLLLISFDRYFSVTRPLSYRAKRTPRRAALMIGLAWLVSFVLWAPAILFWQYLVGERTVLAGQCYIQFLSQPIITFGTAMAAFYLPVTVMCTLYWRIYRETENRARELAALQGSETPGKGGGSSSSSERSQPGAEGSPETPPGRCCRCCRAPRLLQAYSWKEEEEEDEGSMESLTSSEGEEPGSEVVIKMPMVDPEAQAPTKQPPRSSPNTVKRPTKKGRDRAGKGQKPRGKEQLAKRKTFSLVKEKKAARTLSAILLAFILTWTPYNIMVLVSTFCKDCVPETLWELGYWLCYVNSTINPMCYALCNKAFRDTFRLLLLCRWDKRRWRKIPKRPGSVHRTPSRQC
Method: as §1, §2, §3, §4, §5

[1] = Table 4, 100% efficacy is the maximum response obtained with the Carbachol control
[2] = Table 4, modulating M4 receptor
[3] = Table 4, modulating M1 receptor
[4] = M4 receptor, calcium mobilization
[5] = M4 receptor, calcium mobilization, read-out: M4 Efficacy
[6] = M1 receptor, calcium mobilization
[7] = M1 receptor, calcium mobilization, read-out: M1 Efficacy
[8] = Table 4, M4 receptor, calcium mobilization (FLIPR)
[9] = Table 4, M1 receptor, calcium mobilization (FLIPR)

Compound | Emax (M4 muscarinic receptor; [1]) [%] | M4 Activity (M4 muscarinic receptor; [2]) | Emax (M1 muscarinic receptor; [1]) [%] | M1 Activity (M1 muscarinic receptor; [3]) | M4 Activity (M4 muscarinic receptor; [4]) | Emax (M4 muscarinic receptor; [5]) [%] | M1 Activity (M1 muscarinic receptor; [6]) | Emax (M1 muscarinic receptor; [7]) [%] | further results
Cc1ccc2c(c1)C1(CCN(C3CC4CCC3C4)CC1)CN2C(=O)c1ccco1 (stereo not shown) [compound 597] | < 25 | x (activity was measured to be greater than 5.0 μM) | 25 to 100 | x (activity was measured to be greater than 5.0 μM) | – | – | – | – | –
CCOC(=O)N1C2CCC1CC(N1CCC3(CC1)CN(C(=O)NC(C)C)c1ccc(F)cc13)C2 (stereo not shown) [compound 296] | – | – | – | – | x (activity was measured to be greater than 1.0 μM) | 65 to 85 | x (activity was measured to be greater than 1.0 μM) | 65 to 85 | –
CCOC(=O)N1CCC(N2CCC3(CC2)CN(c2ncccn2)c2ccc(F)cc23)CC1 [compound 567] | 25 to 100 | xxx (activity was measured to be less than 2.0 μM) | 25 to 100 | xxx (activity was measured to be less than 2.0 μM) | – | – | – | – | –
CC#CCOC(=O)N1CCC(N2CCC3(CC2)CN(C(C)=O)c2ccccc23)CC1 [compound 672] | 25 to 100 | xxx (activity was measured to be less than 2.0 μM) | 25 to 100 | xxx (activity was measured to be less than 2.0 μM) | – | – | – | – | –
CCOC(=O)N1CCC(CN2CCC3(CCc4ccccc43)CC2)CC1 [compound 414] | – | – | – | – | – | – | – | – | EC50 (M4 muscarinic receptor; M4-CHO cells, calcium mobilization (FLIPR)): > 1 µM; Emax (M4 muscarinic receptor; M4-CHO cells, calcium mobilization (FLIPR), read-out: M4 Efficacy): < 65%; EC50 (M1 muscarinic receptor; M1-CHO cells, calcium mobilization (FLIPR)): > 1 µM; Emax (M1 muscarinic receptor; M1-CHO cells, calcium mobilization (FLIPR), read-out: M1 Efficacy): < 65%
CC(=O)N1CC2(CCN(C3CC4CCC(C3)N4C(=O)O[C@H]3CCOC3)CC2)c2cc(F)ccc21 (stereo partly shown) [compound 47] | – | – | – | – | xx (activity was measured to be between 0.1 μM and 1.0 μM) | 65 to 85 | xxx (activity was measured to be less than 0.1 μM) | 65 to 85 | –
CCOC(=O)N1CCC(N2CCC3(CC2)CN(C(C)=O)c2ccc(-c4ccc(S(C)(=O)=O)cc4)cc23)CC1 [compound 177] | – | – | – | – | xx (activity was measured to be between 0.1 μM and 1.0 μM) | 65 to 85 | xxx (activity was measured to be less than 0.1 μM) | 65 to 85 | –
CCC#CCOC(=O)N1CC[C@@H](CN2CCC3(CC2)CN(C(C)=O)c2cccc(C)c23)C1 [compound 793] | 25 to 100 | xxx (activity was measured to be less than 2.0 μM) | 25 to 100 | xxx (activity was measured to be less than 2.0 μM) | – | – | – | – | –
CCOC(=O)N1CCC(N2CCC3(CC2)C[C@H](NC(C)=O)c2cc(OC)c(OC)cc23)CC1 [compound 774] | 25 to 100 | x (activity was measured to be greater than 5.0 μM) | 25 to 100 | x (activity was measured to be greater than 5.0 μM) | – | – | – | – | –
CN(C)C(=O)N[C@H]1CCC2(CCN([C@@H]3C[C@@H]4CC[C@H]3C4)CC2)c2ccccc21 [compound 789] | 25 to 100 | x (activity was measured to be greater than 5.0 μM) | 25 to 100 | x (activity was measured to be greater than 5.0 μM) | – | – | – | – | –
Fc1ccc2c(c1)C1(CCN(C3CC4CCC3O4)CC1)CN2 (stereo not shown) [compound 705] | < 25 | x (activity was measured to be greater than 5.0 μM) | < 25 | x (activity was measured to be greater than 5.0 μM) | – | – | – | – | –
COCCOC(=O)N1CC2(CCN(C3CC4CCC(C3)N4C(=O)OCCOC)CC2)c2cc(F)ccc21 (stereo not shown) [compound 117] | – | – | – | – | xx (activity was measured to be between 0.1 μM and 1.0 μM) | < 65 | xxx (activity was measured to be less than 0.1 μM) | 65 to 85 | –
CCOC(=O)N1C2CCC1CC(N1CCC3(CC1)C(=O)Nc1ccccc13)C2 (stereo not shown) [compound 199] | – | – | – | – | x (activity was measured to be greater than 1.0 μM) | < 65 | xx (activity was measured to be between 0.1 μM and 1.0 μM) | 65 to 85 | –
CCOC(=O)N1CCC(N2CCC3(CC2)CN(C(C)=O)c2c(C4CCCC4)cccc23)CC1 [compound 918] | < 25 | – | 25 to 100 | – | – | – | – | – | M4 Activity (M4 muscarinic receptor; [8]): x (activity was measured to be greater than 5.0 μM); M1 Activity (M1 muscarinic receptor; [9]): x (activity was measured to be greater than 5.0 μM)
CN(C)C(=O)N1CC2(CCN(C3CCN(c4cnc5ccccc5n4)CC3)CC2)c2cc(F)ccc21 [compound 914] | 25 to 100 | – | 25 to 100 | – | – | – | – | – | M4 Activity (M4 muscarinic receptor; [8]): xxx (activity was measured to be less than 2.0 μM); M1 Activity (M1 muscarinic receptor; [9]): xxx (activity was measured to be less than 2.0 μM)
COc1ccc(CC(=O)N2CCC(N3CCC4(CC3)CN(C(=O)N(C)C)c3ccc(F)cc34)CC2)cc1 [compound 500] | < 25 | x (activity was measured to be greater than 5.0 μM) | < 25 | x (activity was measured to be greater than 5.0 μM) | – | – | – | – | –
CC(=O)N[C@H]1CC2(CCN(CC(=O)N3CCCCC3)CC2)c2ccccc21 [compound 792] | 25 to 100 | x (activity was measured to be greater than 5.0 μM) | 25 to 100 | x (activity was measured to be greater than 5.0 μM) | – | – | – | – | –
CN(C)C(=O)N1CC2(CCN(C3CCN(C(=O)[C@H]4CCCO4)CC3)CC2)c2cc(F)ccc21 [compound 520] | < 25 | x (activity was measured to be greater than 5.0 μM) | 25 to 100 | x (activity was measured to be greater than 5.0 μM) | – | – | – | – | –
CCOC(=O)N1CCC(N2CCC3(CC2)CN(C(=O)c2ccno2)c2ccc(F)cc23)CC1 [compound 321] | – | – | – | – | x (activity was measured to be greater than 1.0 μM) | 65 to 85 | xx (activity was measured to be between 0.1 μM and 1.0 μM) | 65 to 85 | –
